Where “and” joins values, the source holds several entries; their conditions need not be identical. Equal entries are not always repeated. Entries after “also recorded” stand apart in the source; their conditions may differ.
Tests used:
[1] = system: HepG2/C3A; experiment: Human Serum Albumin quantification (ELISA), liver fraction of 4-organ system; type: cell-based; details: 4-organ co-culture under flow, 48 h drug treatment, vs control, DOX 5 μM, ATR 100 μM, VPA 2 mM, APAP 5 mM, AMAP 5 mM
Method: Human Serum Albumin (HSA) production from the liver fraction was tracked throughout the co-culture, by measuring the HSA concentration in the supernatant of the culture as it represents liver protein anabolism. Samples were collected from the exchanged medium (1.2 mL) and stored at −20 °C until analysis. One freeze-thaw cycle occurred before samples were analyzed following manufacturers’ instructions provided in the ELISA Starter Accessory Kit (Bethyl Laboratories Inc, Cat #: E101). Samples were diluted as necessary in sample conjugate/diluent buffer to ensure readings measured within the range of the standard curve. The standard curve was prepared by serial dilutions of human reference serum in sample conjugate/diluent buffer (0–1600 ng/ml).
Final HSA concentrations were calculated in an excel file by first removing the average OD reading measured for blanks from average sample and standard OD readings. Concentrations of standard dilutions were plotted against average OD values measured in XY scatter plots. A standard curve was created by adding an order of 2 polynomial trendline to XY scatter plots and selecting the option to display the equation of the trendline, as well as the R^2 value, on each scatter plot (for ease of analysis HSA sigmoidal curves were split into 3 standard curves with HSA concentration ranges of 0–200 ng/ml, 200–800 ng/ml and […]). Quadratic equations were rearranged to make X (sample HSA concentration) the unknown variant. Y values (OD values) and a/b/c constants generated from trendline equations were inputted into rearranged quadratic equations per assay. HSA concentrations calculated were corrected accordingly for any differences in culture final volumes, sample dilutions during assays and cells number.

[2] = system: iPSc differentiated Cardiomyocytes; experiment: Cardiac beating frequency from video recordings; type: cell-based, human; details: 4-organ co-culture under flow, 48 h drug treatment, day 7, vs control; for Cardiomyocyte beating rate (beat frequency), increase: ATR 100 μM, VPA 2 mM, APAP 5 mM; for Cardiomyocyte beating rate (beat frequency), decrease: DOX 5 μM, AMAP 5 mM
Method: Seven or fourteen days after the co-culture, cardiac beating frequency was quantified from video recordings of three different areas of each of the cMEA surfaces, where the cardiomyocytes culture where located. Surfaces were located in a 37 °C bath platform containing co-culture medium with 50 mM HEPES on the stage of a Zeiss Axioscope 2FS upright microscope. Beats were counted in a period of 10 s, and the average number of 3 values was obtained. Drug effect was plotted as percentage of change compared to the control conditions.

[3] = system: Human Skeletal Myofibers; experiment: Myotube stimulated contraction (binary: contracting or not); type: cell-based; details: 4-organ co-culture under flow, 48 h drug treatment, day 7, broad-field electrical stimulation, DOX 5 μM, ATR 100 μM, VPA 2 mM, APAP 5 mM, AMAP 5 mM
Method: Myotube contraction in coverslips was evaluated after the co-culture was finalized. Individual surfaces were evaluated as previously reported in the group. Drugs effects were quantify in a binary code mode, cells were or were not contracting.

[4] = system: neurons; experiment: Neuron electrophysiology recording (patch clamp); type: cell-based, human; details: 4-organ co-culture under flow, 48 h drug treatment, day 7, vs control, DOX 5 μM, ATR 100 μM; for Neuronal repetitive and spontaneous firing ability / Neuronal ion currents and firing of stimulated action potentials / Neuronal electrophysiology, overall effect: APAP 5 mM; for Neuronal repetitive and spontaneous firing ability / Neuronal electrophysiology, overall effect: AMAP 5 mM; for Neuronal electrophysiology, overall effect: VPA 2 mM
Text: Electrophysiological properties of neuron cultures where recorded on the last day of co-culture following a previously described method. Values of firing, repetitive firing, spontaneous firing, inward sodium current, outward potassium current, action potential peak voltage and the resting membrane potential, characterized the mature functionality of neurons in the in vitro system. Drug alterations of the neuronal electrophysiology are discussed in this manuscript.

[5] = system: CYP3A4; experiment: Cytochrome p450 3A4 enzymatic activity in liver mono-culture; type: cell-based, human; details: ATR 100 μM, 48 hour incubation, data not shown
Method: Enzymatic products from 1A1 were run with LDR, and separately, 3A4 were run with LDR containing esterases. Enzymatic activities were finally represented as D-Luciferin picomoles produce in 1 hour by 1 × 10^6 cells.

[6] = system: Liver; parameters: method as in Literature; details: general toxic effects reported in the literature; ref Literature; cited from earlier work
[7] = system: Muscle; parameters: method as in Literature; details: general toxic effects reported in the literature; ref Literature; cited from earlier work
[8] = system: Neurons; parameters: method as in Literature; details: general toxic effects reported in the literature; ref Literature; cited from earlier work
[9] = system: Cardiomyocytes; parameters: method as in Literature; details: general toxic effects reported in the literature; ref Literature; cited from earlier work
[10] = system: iPSc differentiated Cardiomyocytes; experiment: MTT viability of cardiac module in 4-organ system; details: 4-organ co-culture under flow, serum-free medium, 48 h drug treatment, day 7, vs control, DOX 5 μM, ATR 100 μM, VPA 2 mM, APAP 5 mM, AMAP 5 mM
Text: (§1) The four organ in vitro systems were assembled, on day 0, by placing the corresponding surfaces cell side up in a specific chamber of the housing (liver coverslip into chamber 1, cardiac coverslips and cantilevers into chambers 2 and 4, muscle coverslips into chamber 5, and neuron coverslips into chamber 3 and they were then topped with the serum-free co-culture medium (1X Neurobasal Medium, 1X B27, 1X AB/AM, 1X Glutamax (all from Life Technologies)) before locking the system. Right after assembling, the medium was completely replaced with 4 mL of the co-culture defined serum-free medium and the systems placed on a rocking platform inside an incubator. Platforms were checked every day by inspecting for expected cell morphology inside the system and by replacing medium (1.2 mL total volume) from the two reservoirs (30% of the total volume was replaced) with fresh medium. Drug incubation was initiated on day 5 of the co-culture by addition of the drug through the reservoir closer to the liver chamber (no. 1), allowing a first contact of the drug with the liver. 20 μL of the drug stock solution (or vehicle) to achieve a working concentration in 4 mL of total volume in the platform was utilized. On day 6, after 24 hours of drug incubation, 6 μL of the drug stock solution (or vehicle) was added to the fresh medium exchange volume (1.2 mL). After 48 hour of drug incubation, on day 7, systems were disassembled to test organ functionality that same day. For mono-culture conditions, surfaces remained in a 12-well plated with 1 mL of the co-culture defined serum-free medium maintained by daily replacement of half volume.
(§2) Seven days after the initiation of the co-culture, viability of each organ chamber, except for neurons, was evaluated through an MTT assay. […] Cell viability was measured at 570 nm in a Synergy HT plate reader and KC4 software. The results were expressed as the percentage of cell survival relative to the control (untreated or incubated with vehicle). The neuronal fraction viability was evaluated through morphological analysis throughout the co-culture experiment as the final coverslips were used for patch-clamp electrophysiology. Phase images (10X) where obtained every day of the co-culture. Neuronal viability was evaluated by cell morphology integrity and by cell count from day 1 to day 14.

[11] = system: Human Skeletal Myofibers; experiment: MTT viability of skeletal muscle module in 4-organ system; details: 4-organ co-culture under flow, serum-free medium, 48 h drug treatment, day 7, vs control, DOX 5 μM, ATR 100 μM, VPA 2 mM, APAP 5 mM, AMAP 5 mM
Text: as §1, §2

[12] = system: neurons; experiment: Neuronal viability by morphological analysis and cell count in 4-organ system; details: 4-organ co-culture under flow, serum-free medium, 48 h drug treatment, day 7, vs control, DOX 5 μM, ATR 100 μM, VPA 2 mM, APAP 5 mM, AMAP 5 mM
Text: as §1, §2

[13] = system: HepG2/C3A; experiment: MTT viability of liver module in 4-organ system; type: cell-based, human; details: 4-organ co-culture under flow, serum-free medium, 48 h drug treatment, day 7, vs control, DOX 5 μM, ATR 100 μM, VPA 2 mM, APAP 5 mM, AMAP 5 mM
Text: as §1, §2

[14] = system: HepG2/C3A; experiment: Urea quantification, liver fraction of 4-organ system; type: cell-based, human; details: 4-organ co-culture under flow, 48 h drug treatment, vs control, DOX 5 μM, ATR 100 μM, APAP 5 mM, AMAP 5 mM
[15] = system: skeletal muscle cells; experiment: Bright-field imaging of skeletal muscle morphology in 4-organ system; type: cell-based, human; details: 4-organ co-culture under flow, DOX 5 μM, 48 h
Text: Cell morphology and function were studied each day with an inverted bright-field microscope (Carl Zeiss) using a 10X objective. This working distance allowed the imaging of the cells in the specific surfaces inside the housing. Images of each fraction and systems were collected with an Axio Cam and AxioVision AC software to study morphological or functional changes in the co-culture chamber for each organ.

[16] = cited from earlier work
[17] = system: liver; details: patients undergoing DOX treatment; cited from earlier work
[18] = system: neuron; parameters: method as in PMID 17298386; details: 1uM DOX for 24 hours; read-out: Neuron viability drop; cited from earlier work

Compound	HSA (albumin) production, increase [1]	Skeletal muscle loss of contractile ability (share of cultures in which contraction ceased) [3]	Neuronal action potential peak voltage and resting membrane potential (DOX also peak ionic currents) [4]	Neuronal electrophysiology, overall effect [4]	Drug effects on cell functionality, Liver, Literature [6]	Drug effects on cell viability, Liver, Literature [6]	Drug effects on cell functionality, Muscle, Literature [7]	Drug effects on cell viability, Muscle, Literature [7]	Drug effects on cell functionality, Neurons, Literature [8]	Drug effects on cell viability, Neurons, Literature [8]	Drug effects on cell functionality, Cardiomyocytes, Literature [9]	Drug effects on cell viability, Cardiomyocytes, Literature [9]	Cardiomyocyte viability, loss [10]	Skeletal muscle viability, loss [11]	Neuronal cell viability, loss (cell loss by morphology/cell count) [12]	further results
CC(C)c1c(C(=O)Nc2ccccc2)c(-c2ccccc2)c(-c2ccc(F)cc2)n1CC[C@@H](O)C[C@@H](O)CC(=O)O [Atorvastatin]	not affected	50% loss of contractile ability	changes	Electrophysiology affected	May be compromised	Toxicity reported	Compromised	Toxicity reported	Toxic at higher concentration( ^**)	Toxic at higher concentration( ^**)	Cardio-protective effect	Cardio-protective effect	No toxic effect observed	30 ± 15% loss	47 ± 14% loss of cell viability	HSA (albumin) production, increase ([1]; listed as ATR): no change; Cardiomyocyte beating rate (beat frequency), increase [2]: 43 ± 16% increase in beating rate; Cardiomyocyte beating rate (beat frequency), increase ([2]; listed as ATR): 43 ± 16%; Skeletal muscle loss of contractile ability (share of cultures in which contraction ceased) ([3]; listed as ATR): 50%; Neuronal repetitive and spontaneous firing ability ([4]; listed as ATR): altered ability; also recorded: no repetitively firing cells were observed; Neuronal ion currents and firing of stimulated action potentials ([4]; listed as ATR): typical ion currents and stimulated firing APs; also recorded: regular AP activity was recorded with good sodium and potassium currents; CYP3A4 activity induction [5]: 12 fold; Cardiomyocyte viability, loss ([10]; listed as ATR): no reduction; Skeletal muscle viability, loss ([11]; listed as ATR): 30 ± 15%; Neuronal cell viability, loss (cell loss by morphology/cell count) ([12]; listed as ATR): 47 ± 14% and 47 ± 16%
COc1cccc2c1C(=O)c1c(O)c3c(c(O)c1C2=O)C[C@@](O)(C(=O)CO)C[C@@H]3O[C@H]1C[C@H](N)[C@H](O)[C@H](C)O1 [Doxorubicin]	HSA and Urea not affected( ^*)	60% loss of contractile ability	not significantly different	Electrophysiology affected	May be compromised	Toxicity reported	Toxicity at higher concentrations	Toxicity at higher concentrations	Neurologic disturbances ( ^**)	Neurologic disturbances ( ^**)	Compromised	Toxicity reported	65 ± 6% loss	Toxicity not observed	33 ± 13% loss of cell viability	Liver (hepatocyte) cell viability, loss [13]: 49 ± 10% loss; Liver (hepatocyte) cell viability, loss ([13]; listed as DOX): 49 ± 10%; Urea production, increase [14]: HSA and Urea not affected( ^*); Urea production, increase ([14]; listed as DOX): No effects; HSA (albumin) production, increase ([1]; listed as DOX): No effects; Cardiomyocyte beating rate (beat frequency), decrease [2]: 47 ± 9% decrease in beating rate; Cardiomyocyte beating rate (beat frequency), decrease ([2]; listed as DOX): 47 ± 9%; Skeletal muscle loss of contractile ability (share of cultures in which contraction ceased) ([3]; listed as DOX): 60%; Neuronal ion currents and firing of stimulated action potentials [4]: no changes; Neuronal repetitive and spontaneous firing ability ([4]; listed as DOX): not observed after treatment; Muscle morphology [15]: not affected; Patient plasma concentrations typically detected ([16]; patients): 0.5 to 1 µM; Concentration in mitochondria relative to plasma levels ([16]; typically): 100 times; Patients undergoing treatment that show hepatotoxicity [17]: 40%; cytotoxicity [18]: 25%; Cardiomyocyte viability, loss ([10]; listed as DOX): 65 ± 6%; Neuronal cell viability, loss (cell loss by morphology/cell count) ([12]; listed as DOX): 33 ± 18% and 33 ± 13%

— paper PMC4738272 (Scientific Reports, 2016)
